Bounds are passed on as bounds.

The target of assay [1] is T1, Polθ theta (1-899) (hPolQ) (Homo sapiens (Human), UniProt O75417). The assay is described as follows: Biological Assay 2: Polθ ATPase activity, NADH oxidation-coupled enzymatic assay (5 nM enzyme, 120 min). The note with it: Polθ (1-899) 5 nM, 100 μM ATP, 300 nM dT50 ssDNA; Examples 269 to 271; read-out: ATPase NADH coupling:Standard Screening:hPolQ IC50. Format: biochemical. How it is done: The ability of the compounds (Example 269 to Example 271) of described herein to inhibit ATPase activity of Polθ theta (1-899) was determined using the assay described below.
Polθ Theta ATPase activity was determined by measuring the rate of ATP turn over in a NADH oxidation-coupled enzymatic assay. 11-point dilution series of compounds were used in a 384 well format for the inhibition assays. Polθ theta (1-899) (5 nM) in assay buffer (20 mM Tris HCl (pH 7.80), 80 mM KCl, 10 mM MgCl2, 1 mM DTT, 0.01% BSA, 0.01% Tween, 5% glycerol) was transferred to the test wells (20 μL), except the low control wells (20 μL of assay buffer was added to the low control wells). The plate was then incubated at room temperature for 15 min. An equal volume (20 μL) of 100 μM ATP, 300 nM dT50 (single-stranded DNA (ssDNA) containing 50 thymine bases), 300 μM NADH, 6 mM PEP, 10 U/mL lactate dehydrogenase and U/mL pyruvate kinase in assay buffer was added to all the test wells. The plate was then centrifuged at 1000 rpm for 1 min. The reaction was monitored for 120 min by measuring absorbance (λ=340 nm) in a PHERAstar FSX multimode plate reader every 3 minute. The high control (DMSO with enzyme) with low absorbance intensity represents no inhibition of ATPase reaction while the low control (DMSO with buffer) with high absorbance intensity represents full inhibition of ATPase activity. Slope of the reaction progress curves were used to calculate the rate of ATP hydrolysis. The rates were used to determine the percent inhibition using a four-parameter inhibition model to generate IC50, Hill slope and max inhibition.

In assay [2] the target is T1, Polθ theta (1-899) (hPolQ). The assay is described as follows: Biological Assay 1: Polθ ATPase activity, NADH oxidation-coupled enzymatic assay (10 nM enzyme, 30 min). Type of assay: biochemical. The note with it: Polθ (1-899) 10 nM, 100 μM ATP, 300 nM dT50 ssDNA; Examples 1 to 268; read-out: ATPase NADH coupling:Standard Screening:hPolQ IC50. In a few lines:
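Polθ (1-899) at 10 nM was preincubated with compound for 15 min at room temperature in 20 mM Tris pH 7.80, 80 mM KCl, 10 mM MgCl2. An equal volume of 100 μM ATP, 300 nM dT50 ssDNA and a PK/LDH–NADH coupling system was then added. A340 was read each minute for 30 min. IC50 came from rate slopes over 10-point series with a four-parameter fit.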

T1 sequence (O75417 1-899): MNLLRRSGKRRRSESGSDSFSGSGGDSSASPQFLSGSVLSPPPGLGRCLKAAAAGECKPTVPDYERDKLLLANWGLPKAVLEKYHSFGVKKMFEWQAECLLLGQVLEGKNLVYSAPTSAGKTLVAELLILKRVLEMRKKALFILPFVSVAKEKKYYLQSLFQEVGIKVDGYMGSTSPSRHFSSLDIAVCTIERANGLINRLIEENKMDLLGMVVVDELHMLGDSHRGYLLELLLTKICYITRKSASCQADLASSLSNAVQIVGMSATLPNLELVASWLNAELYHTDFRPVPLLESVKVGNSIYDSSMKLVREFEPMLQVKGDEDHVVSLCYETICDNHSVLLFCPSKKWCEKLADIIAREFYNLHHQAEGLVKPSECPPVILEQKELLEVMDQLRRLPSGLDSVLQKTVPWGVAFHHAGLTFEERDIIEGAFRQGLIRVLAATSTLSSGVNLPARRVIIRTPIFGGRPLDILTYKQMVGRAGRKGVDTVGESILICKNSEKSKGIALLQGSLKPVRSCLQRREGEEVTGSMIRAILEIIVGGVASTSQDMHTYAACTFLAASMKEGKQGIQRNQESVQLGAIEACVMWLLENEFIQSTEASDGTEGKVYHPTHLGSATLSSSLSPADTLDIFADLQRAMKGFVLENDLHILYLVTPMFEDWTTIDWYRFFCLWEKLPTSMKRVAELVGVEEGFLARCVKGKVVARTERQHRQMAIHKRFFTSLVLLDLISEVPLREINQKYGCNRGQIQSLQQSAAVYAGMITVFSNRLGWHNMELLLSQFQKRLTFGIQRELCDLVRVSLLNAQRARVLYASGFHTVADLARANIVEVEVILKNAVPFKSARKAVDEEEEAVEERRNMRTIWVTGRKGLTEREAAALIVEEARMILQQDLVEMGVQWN

For `COc1cnc(Cl)cc1-c1cc(C)ncc1C(=O)Nc1nnc(OCC2(F)CN(C)C2)s1` [Example 269, 2′-chloro-N-(5-((3-fluoro-1-methylazetidin-3-yl)methoxy)-1,3,4-thiadiazol-2-yl)-5′-methoxy-6-methyl-(4,4′-bipyridine)-3-carboxamide], the IC50 (as a rule, the concentration that inhibits the measured activity by half) in assay [1] is at most 200 nM.
On the same count and under the same terms, in the case of `COc1cnc(Cl)cc1-c1cc(C)ncc1C(=O)Nc1nnc(OC[C@@H]2CCN(C(C)=O)C2)s1` [Example 270, (R)—N-(5-((1-acetylpyrrolidin-3-yl)methoxy)-1,3,4-thiadiazol-2-yl)-2′-chloro-5′-methoxy-6-methyl-(4,4′-bipyridine)-3-carboxamide] it was 1000 to 10000 nM.
On to `COc1cnc(Cl)cc1-c1cc(C)ncc1C(=O)Nc1nnc(OCC(C)(C)N2CCNC2=O)s1` [Example 271, 2′-chloro-5′-methoxy-6-methyl-N-(5-(2-methyl-2-(2-oxoimidazolidin-1-yl)propoxy)-1,3,4-thiadiazol-2-yl)-(4,4′-bipyridine)-3-carboxamide], for which the half-inhibitory concentration (IC50) in assay [1] is at most 200 nM.
Consider `COc1ccccc1-c1cc(C)ncc1C(=O)Nc1nnc(OCc2ccc(C3(C(=O)O)CC3)cn2)s1` [compound 4, 1-(6-(((5-(4-(2-methoxyphenyl)-6-methylnicotinamido)-1,3,4-thiadiazol-2-yl)oxy)methyl)pyridin-3-yl)cyclopropane-1-carboxylic acid], for which the IC50 in assay [2] is at most 200 nM.
Consider `COc1ccccc1-c1cc(C)ncc1C(=O)Nc1nnc(OCc2ccc(CO)cn2)s1` [compound 5, N-(5-((5-(hydroxymethyl)pyridin-2-yl)methoxy)-1,3,4-thiadiazol-2-yl)-4-(2-methoxyphenyl)-6-methylnicotinamide], for which, in assay [2], the IC50 is at most 200 nM.
The same measure, in the same setting: in the case of “N-(5-(((S)-1,4-dioxan-2-yl)methoxy)-1,3,4-thiadiazol-2-yl)-3′-fluoro-5′-methoxy-2′,6-dimethyl-(4,4′-bipyridine)-3-carboxamide [Example 241]” it was at most 200 nM.

The record behind these values is patent publication US20250325552A1, “SUBSTITUTED THIADIAZOLYL DERIVATIVES AS DNA POLYMERASE THETA INHIBITORS” (IDEAYA Biosciences, Inc., priority 2020, published 2025).
